Experimental data from ChEMBL document CHEMBL1201862, “PubChem BioAssay data set” (2004).
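Compound exposure: 48 hours, 5 concentrations, 96-well plates. GI50 is the concentration that inhibits growth by half.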 Activity calls are given as the source filed them. No stated cut-off is given here; in the data, active = GI50 up to about 1.1 µM and inactive = higher.

Tests used:
Experiment in all cases: NCI anticancer screen, dose series, 48 h
[1] = system: 786-0
[2] = system: A498
[3] = system: A549
[4] = system: ACHN
[5] = system: BT-549
[6] = system: CAKI-1
[7] = system: CCRF-CEM
[8] = system: COLO 205
[9] = system: DU-145
[10] = system: EKVX
[11] = system: HCC 2998
[12] = system: HCT-116
[13] = system: HCT-15
[14] = system: HL-60
[15] = system: HOP-62
[16] = system: HOP-92
[17] = system: HT-29
[18] = system: Hs-578T
[19] = system: IGROV-1
[20] = system: K562
[21] = system: KM12
[22] = system: LOX IMVI
[23] = system: M14
[24] = system: MCF7
[25] = system: MDA-MB-231
[26] = system: MDA-MB-435
[27] = system: MDA-N
[28] = system: MOLT-4
[29] = system: Malme-3M
[30] = system: NCI-H226
[31] = system: NCI-H23
[32] = system: NCI-H460
[33] = system: NCI-H522
[34] = system: NCI/ADR-RES
[35] = system: OVCAR-3
[36] = system: OVCAR-4
[37] = system: OVCAR-5
[38] = system: OVCAR-8
[39] = system: PC-3
[40] = system: RPMI-8226
[41] = system: RXF 393
[42] = system: SF-268
[43] = system: SF-295
[44] = system: SF-539
[45] = system: SK-MEL-28
[46] = system: SK-MEL-2
[47] = system: SK-MEL-5
[48] = system: SK-OV-3
[49] = system: SN12C
[50] = system: SNB-19
[51] = system: SNB-75
[52] = system: SR
[53] = system: SW-620
[54] = system: T47D
[55] = system: TK-10
[56] = system: U-251
[57] = system: UACC-257
[58] = system: UACC-62
[59] = system: UO-31

Compound: C(=C\c1cccc(/C=C/c2ccccn2)n1)/c1ccccn1
- GI50 [1]: > 100 µM (inactive)
- GI50 [2]: 0.971 µM (active)
- GI50 [3]: > 100 µM (inactive)
- GI50 [4]: 35.2 µM (inactive)
- GI50 [5]: 18.7 µM (inactive)
- GI50 [6]: 50.7 µM (inactive)
- GI50 [7]: 37 µM (inactive)
- GI50 [8]: 39.8 µM (inactive)
- GI50 [9]: > 100 µM (inactive)
- GI50 [10]: > 100 µM (inactive)
- GI50 [11]: 79.6 µM (inactive)
- GI50 [12]: 68.9 µM (inactive)
- GI50 [13]: > 100 µM
- GI50 [14]: 72.4 µM (inactive)
- GI50 [15]: > 100 µM (inactive)
- GI50 [16]: > 100 µM (inactive)
- GI50 [17]: 56.8 µM (inactive)
- GI50 [18]: 19.5 µM (inactive)
- GI50 [19]: 61.8 µM (inactive)
- GI50 [20]: 47.8 µM (inactive)
- GI50 [21]: 46.8 µM (inactive)
- GI50 [22]: 66.4 µM (inactive)
- GI50 [23]: 43.3 µM (inactive)
- GI50 [24]: 26.6 µM (inactive)
- GI50 [25]: > 100 µM (inactive)
- GI50 [26]: 83.8 µM (inactive)
- GI50 [27]: 68.2 µM (inactive)
- GI50 [28]: 31.5 µM (inactive)
- GI50 [29]: 17.3 µM (inactive)
- GI50 [30]: > 100 µM (inactive)
- GI50 [31]: 66.5 µM (inactive)
- GI50 [32]: > 100 µM (inactive)
- GI50 [33]: 13.4 µM (inactive)
- GI50 [34]: 39.2 µM (inactive)
- GI50 [35]: 79.3 µM (inactive)
- GI50 [36]: 60.4 µM (inactive)
- GI50 [37]: > 100 µM (inactive)
- GI50 [38]: 36.2 µM (inactive)
- GI50 [39]: 58.9 µM (inactive)
- GI50 [40]: 43.6 µM (inactive)
- GI50 [41]: 62.1 µM (inactive)
- GI50 [42]: 20.2 µM (inactive)
- GI50 [43]: 66.2 µM (inactive)
- GI50 [44]: > 100 µM (inactive)
- GI50 [45]: 81.3 µM (inactive)
- GI50 [46]: > 100 µM (inactive)
- GI50 [47]: 48.4 µM (inactive)
- GI50 [48]: > 100 µM (inactive)
- GI50 [49]: 60.7 µM (inactive)
- GI50 [50]: > 100 µM (inactive)
- GI50 [51]: 37.4 µM (inactive)
- GI50 [52]: 62.2 µM (inactive)
- GI50 [53]: 59.4 µM (inactive)
- GI50 [54]: 44.5 µM (inactive)
- GI50 [55]: > 100 µM (inactive)
- GI50 [56]: > 100 µM (inactive)
- GI50 [57]: > 100 µM (inactive)
- GI50 [58]: 27.1 µM (inactive)
- GI50 [59]: 26.2 µM (inactive)

Compound: COc1ccc2[nH]c3c(C)c4ccnc(NCCCN(C)CCCN)c4c(C)c3c2c1
- GI50 [1]: 0.0596 µM (active)
- GI50 [2]: 0.217 µM (active)
- GI50 [3]: 0.0442 µM (active)
- GI50 [4]: 0.119 µM (active)
- GI50 [5]: 1.76 µM (inactive)
- GI50 [6]: 0.156 µM (active)
- GI50 [7]: 0.0726 µM (active)
- GI50 [8]: 0.0778 µM (active)
- GI50 [9]: 0.196 µM (active)
- GI50 [10]: 0.225 µM (active)
- GI50 [11]: 0.159 µM (active)
- GI50 [12]: 0.107 µM (active)
- GI50 [13]: 0.258 µM
- GI50 [14]: 0.12 µM (active)
- GI50 [15]: 0.109 µM (active)
- GI50 [16]: 0.13 µM (active)
- GI50 [17]: 0.042 µM (active)
- GI50 [18]: 0.0364 µM (active)
- GI50 [19]: 0.165 µM (active)
- GI50 [20]: 0.118 µM (active)
- GI50 [21]: 0.258 µM (active)
- GI50 [22]: 0.198 µM (active)
- GI50 [23]: 0.171 µM (active)
- GI50 [24]: 0.0263 µM (active)
- GI50 [25]: 0.0873 µM (active)
- GI50 [26]: 0.195 µM (active)
- GI50 [27]: 0.214 µM (active)
- GI50 [28]: 0.111 µM (active)
- GI50 [29]: 0.31 µM (active)
- GI50 [30]: 0.0458 µM (active)
- GI50 [31]: 0.202 µM (active)
- GI50 [32]: 0.091 µM (active)
- GI50 [33]: 0.0189 µM (active)
- GI50 [34]: 0.394 µM (active)
- GI50 [35]: 0.469 µM (active)
- GI50 [36]: 0.0809 µM (active)
- GI50 [37]: 0.176 µM (active)
- GI50 [38]: 0.162 µM (active)
- GI50 [39]: 0.259 µM (active)
- GI50 [40]: 0.281 µM (active)
- GI50 [41]: 0.0622 µM (active)
- GI50 [42]: 0.138 µM (active)
- GI50 [43]: 0.214 µM (active)
- GI50 [44]: 0.118 µM (active)
- GI50 [45]: 0.719 µM (active)
- GI50 [46]: 0.336 µM (active)
- GI50 [47]: 0.178 µM (active)
- GI50 [48]: 0.838 µM (active)
- GI50 [49]: 0.0274 µM (active)
- GI50 [50]: 0.213 µM (active)
- GI50 [51]: 0.0257 µM (active)
- GI50 [52]: 0.186 µM (active)
- GI50 [53]: 0.102 µM (active)
- GI50 [54]: 0.213 µM (active)
- GI50 [55]: 0.166 µM (active)
- GI50 [56]: 0.0803 µM (active)
- GI50 [57]: 0.979 µM (active)
- GI50 [58]: 0.22 µM (active)
- GI50 [59]: 0.207 µM (active)

Compound: CC1(C)CCCC2OC2CCC(C)(C)C1=O (configuration not stated)
- GI50 [1]: > 100 µM (inactive)
- GI50 [2]: > 100 µM (inactive)
- GI50 [3]: > 100 µM (inactive)
- GI50 [4]: > 100 µM (inactive)
- GI50 [5]: > 100 µM (inactive)
- GI50 [6]: > 100 µM (inactive)
- GI50 [7]: > 100 µM (inactive)
- GI50 [8]: > 100 µM (inactive)
- GI50 [9]: > 100 µM (inactive)
- GI50 [10]: > 100 µM (inactive)
- GI50 [11]: > 100 µM (inactive)
- GI50 [12]: > 100 µM (inactive)
- GI50 [13]: > 100 µM
- GI50 [14]: > 100 µM (inactive)
- GI50 [15]: > 100 µM (inactive)
- GI50 [16]: > 100 µM (inactive)
- GI50 [17]: > 100 µM (inactive)
- GI50 [18]: > 100 µM (inactive)
- GI50 [19]: > 100 µM (inactive)
- GI50 [20]: > 100 µM (inactive)
- GI50 [21]: > 100 µM (inactive)
- GI50 [22]: > 100 µM (inactive)
- GI50 [23]: > 100 µM (inactive)
- GI50 [24]: > 100 µM (inactive)
- GI50 [25]: > 100 µM (inactive)
- GI50 [26]: > 100 µM (inactive)
- GI50 [27]: > 100 µM (inactive)
- GI50 [28]: > 100 µM (inactive)
- GI50 [29]: > 100 µM (inactive)
- GI50 [30]: > 100 µM (inactive)
- GI50 [31]: > 100 µM (inactive)
- GI50 [32]: > 100 µM (inactive)
- GI50 [33]: > 100 µM (inactive)
- GI50 [34]: > 100 µM (inactive)
- GI50 [35]: > 100 µM (inactive)
- GI50 [36]: > 100 µM (inactive)
- GI50 [37]: > 100 µM (inactive)
- GI50 [38]: > 100 µM (inactive)
- GI50 [39]: > 100 µM (inactive)
- GI50 [40]: > 100 µM (inactive)
- GI50 [41]: > 100 µM (inactive)
- GI50 [42]: > 100 µM (inactive)
- GI50 [43]: > 100 µM (inactive)
- GI50 [44]: > 100 µM (inactive)
- GI50 [45]: > 100 µM (inactive)
- GI50 [46]: > 100 µM (inactive)
- GI50 [47]: > 100 µM (inactive)
- GI50 [48]: > 100 µM (inactive)
- GI50 [49]: > 100 µM (inactive)
- GI50 [50]: > 100 µM (inactive)
- GI50 [51]: > 100 µM (inactive)
- GI50 [52]: > 100 µM (inactive)
- GI50 [53]: > 100 µM (inactive)
- GI50 [54]: > 100 µM (inactive)
- GI50 [55]: > 100 µM (inactive)
- GI50 [56]: > 100 µM (inactive)
- GI50 [57]: > 100 µM (inactive)
- GI50 [58]: > 100 µM (inactive)
- GI50 [59]: > 100 µM (inactive)
